Experiment [1] concerns gonadotropic axis (plasma LH and FSH). Briefly: i.v. injection of Kiss-1: plasma LH and FSH levels, with or without Antide pretreatment. Type of experiment: in vivo, rat. The protocol: (§1) All experiments were conducted in female Sprague-Dawley rats (180-200 g) obtained from Charles River (MA), fed with standard laboratory chow and water ad libitum, kept on 12 h light-dark in temperature and humidity controlled room.
(§2) Ovariectomy and implantation of estrogen-containing capsule. To remove daily variance of plasma estrogen levels due to variable estrous cycle, both ovaries were removed under anesthesia through incision at the animal's back. Right before closure of the incision, two estrogen-containing capsules (0.5 mg/coupsule, Innovative Research of America, FL) were inserted subcutaneously at the middle of animal's back to maintain consistent basal physiological levels of plasma estrogen. Rats were allowed to recover for 7 days.
Jugular cannula insertion and tethering to automated blood sampler. The right jugular vein of anesthetized rats was exposed through a neck incision. A retaining suture was tied to the exposed vein at rostral end to manipulate the vein. The caudal end of the vein was clamped with a small forceps to prevent bleeding while a cannula, a polyethene tubing (OD 1.0 mm), was inserted in the middle of the vein through a 0.5 mm incision made with iris scissors. After the insertion of the cannula, a suture was tied around the vein at the caudal end to secure the cannula within the vein. The incision at the neck was closed with wound clips and the outer end of the cannula was attached to a tubing of an automated blood sampler (Bioanalytical Systems Inc., IN) filled with heparin-containing (20 IU/ml) sterile saline. The automated blood sampler consisting of a turning cage equipped with a food box and a water bottle, a balanced arm, a pumping system, a fraction collector and a controller was used to collect blood samples. A rat inserted of a jugular cannula was tethered to the balanced arm via a loosely-fitting plastic collar. The cage rotates to the counter direction of animal's movement to prevent twisting of the jugular cannula connected to a tubing of the sampler, as well as to allow the rat to eat, drink and move freely during the course of the blood collection. Rats were allowed to recover for 24 hours.
All experiments were carried out around between 13 h and 14 h. […]
(§3) Changes of plasma LH and FSH concentration (ng/ml) after injection were obtained as the area under the curve (AUC). It was first determined for each animal by calculating the sum of post-treatment hormonal levels at 15, 30 and 45 min each of which was subtracted by basal levels (an average of pre-treatment levels at −15 and 0 min), then averaged as a group. Statistical differences among treatment groups were determined by one-way ANOVA followed by LSD as a post-hoc test. […]

In a further experiment the target is GPCR54 (Homo sapiens, UniProt Q969F8). The settings on record: peptides from placental tissue extract, Kotani et al. 2001; cited from earlier work.
A further experiment has as its system LH and FSH release. Briefly: in vivo comparison of GnRH and Kiss1 on release of LH and FSH over 45 minutes (FIG. 1). Details: species or system rat. The conditions noted are these: single administration, compared with GnRH. The protocol: All experiments were carried out around between 13 h and 14 h. […] Blood samples (100 ul) were removed before (−15 and 0 min) and after (15, 30, 45 min) injection with the automated blood sampler. Each blood sample was replaced with an equivalent volume of the heparin-containing (20 IU/ml) sterile saline. Plasma was extracted and stored at −20° C. until determination of LH and FSH by enzyme-linked immunoassay and radioimmunoassay, respectively.
Changes of plasma LH and FSH concentration (ng/ml) after injection were obtained as the area under the curve (AUC). It was first determined for each animal by calculating the sum of post-treatment hormonal levels at 15, 30 and 45 min each of which was subtracted by basal levels (an average of pre-treatment levels at −15 and 0 min), then averaged as a group. Statistical differences among treatment groups were determined by one-way ANOVA followed by LSD as a post-hoc test. An initial data set is shown in FIGS. 1A-P. Further data are described in Examples 2 and 3 below.

In experiment [2] the test system is gonadotropic axis (plasma LH and FSH). Briefly: i.c.v. injection of Kiss-1: plasma LH and FSH levels. Type of experiment: in vivo, rat. As to the method:
as §1
Implantation of intracerebroventricular cannula for i.c.v. experiment. The head of anesthetized rats was placed in the stereotaxic instrument and oriented such that the bregma and lambda was horizontal. An incision was made along the sagittal midline in an anterior-to-posterior direction. A hole, 1.5 mm in diameter, was drilled through the skull 0.9 mm posterior and 0.0 mm lateral to bregma. A 25 mm×22 gauge stainless steel cannula was lowered about 7 mm until cerebrospinal fluid could be aspirated from the 3rd ventricle via a 1 cc syringe connected to the cannula by a 5 cm section of Silastic tubing. After sealing the outer opening of the cannula, it was anchored to the skull with three stainless steel screws and dental acrylic cement then the incision was closed. Rats were allowed to recover for 14 days.
as §2
Jugular cannula insertion and tethering to automated blood sampler. The right jugular vein of anesthetized rats was exposed through a neck incision. A retaining suture was tied to the exposed vein at rostral end to manipulate the vein. The caudal end of the vein was clamped with a small forceps to prevent bleeding while a cannula, a polyethene tubing (OD 1.0 mm), was inserted in the middle of the vein through a 0.5 mm incision made with iris scissors. After the insertion of the cannula, a suture was tied around the vein at the caudal end to secure the cannula within the vein. […]
as §3

No end group written: not given here.

GPCR54, sequence (Q969F8 whole entry): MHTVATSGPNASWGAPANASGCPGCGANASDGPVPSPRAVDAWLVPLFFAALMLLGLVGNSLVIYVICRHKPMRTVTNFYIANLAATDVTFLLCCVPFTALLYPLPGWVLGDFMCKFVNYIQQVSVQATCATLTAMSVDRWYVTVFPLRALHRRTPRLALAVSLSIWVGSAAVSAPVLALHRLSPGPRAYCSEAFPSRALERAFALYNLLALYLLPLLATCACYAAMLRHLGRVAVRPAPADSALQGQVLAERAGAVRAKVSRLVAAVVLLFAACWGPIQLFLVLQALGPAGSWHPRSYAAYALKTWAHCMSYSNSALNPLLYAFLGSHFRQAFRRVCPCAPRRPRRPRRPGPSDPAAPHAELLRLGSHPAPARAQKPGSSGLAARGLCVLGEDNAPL

On to Antide [reference compound], for which the “prevention of GnRH- and Kiss-1-induced elevations of circulating gonadotropins levels” value in experiment [1] (Antide pretreatment 15 min before injection of 400 ug/kg of Kiss-1) is “successfully prevented”.

As for “GnRH: GnRH, a positive control, obtained from Sigma (QHWSYGLRPG; Gonadoliberin-1; UniProt P01148 24-33, looked up) [reference compound]”, the circulating gonadotropins levels result in experiment [1] (GnRH positive control, estrogen-treated ovariectomized rats) was “induced elevations of circulating gonadotropins levels”.

“SEQ ID NO:5: 14-amino acid kisspeptin from Kiss-1 with RF-amide at the C-terminus (Kotani et al.) (DLPNYNWNSFGLRF-NH2; listed as Homo sapiens)”: the “agonist activity at GPCR54” value with GPCR54 is “agonists of GPCR54”.

For “SEQ ID NO:6: 13-amino acid kisspeptin from Kiss-1 with RF-amide at the C-terminus (Kotani et al.) (LPNYNWNSFGLRF-NH2; listed as Homo sapiens)”, the “agonist activity at GPCR54” value with GPCR54 is “agonists of GPCR54”.

For “SEQ ID NO: 4: 54-amino acid kisspeptin from Kiss-1 with RF-amide at the C-terminus (Kotani et al.) (GTSLSPPPESSGSPQQPGLSAPHSRQIPAPQGAVLVQREKDLPNYNWNSFGLRF-NH2; listed as Homo sapiens)”, the “agonist activity at GPCR54” value with GPCR54 is “agonists of GPCR54”.

“Tyr-Asn-Trp-Asn-Ser-Phe-Gly-Leu-Arg-Phe-NH2 (YNWNSFGLRF-NH2; listed as Homo sapiens) [Kiss-1]”: the “LH and FSH production” value in the experiment on LH and FSH release was “sufficient to drive LH and FSH production similar to GnRH”. Moreover, in experiment [1] (i.v. injection, estrogen-treated ovariectomized rats), the “plasma FSH levels” value is given as “dose-dependent increases”. In addition, the “plasma LH levels” value in experiment [1] (i.v. injection, estrogen-treated ovariectomized rats, with the exception of LH response at the highest dose) is on record as “dose-dependent increases”. Also, the “i.c.v. dose to yield FSH response as fraction of i.v. dose” value in experiment [2] (FSH, i.c.v. versus i.v.) is 1/100. For the same substance, the “i.c.v. dose to yield LH response as fraction of i.v. dose” value in experiment [2] (LH, i.c.v. versus i.v.) is recorded as 1/25. The LH release entry in experiment [2] (i.c.v. injection, estrogen-treated ovariectomized rats) is listed as “dose-dependently stimulated LH release”. Moreover, in experiment [2] (i.c.v. injection, higher dose not as effective as the lower dose), the FSH levels result is reported as “significant increase of FSH levels”.
